# Test results: US10479795B2 (Incyte Corporation, priority 2016, dated 2019)
# Counter-ions that a name gives are not always drawn. Like-named read-outs stand apart in the source and are kept apart here.
# How the values were obtained:
# [1] = molecular target: PI3Kγ (p110γ) Recombinant Human Protein (Homo sapiens (Human), UniProt P48736); test: PI3K-γ Scintillation Proximity Assay; type: biochemical
# How it was run: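 Radiometric SPA readout: […] bound to WGA beads after overnight shaking, IC50 derived from % activity of DMSO control. Reaction used human p110γ, 2 μM ATP, 20 μM PIP2, pH 6.7 MOPS buffer with MgCl2, DTT, CHAPS, 2% DMSO, room temperature.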
# [2] = molecular target: PI3Kδ (p110δ/p85α) Recombinant Human Protein (Homo sapiens (Human), UniProt O00329); test: PI3Kδ Scintillation Proximity Assay; type: biochemical
# How it was run: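 Radiometric read-out: 33P-labelled PIP3 product captured on WGA SPA beads and counted, with IC50 fitted from percent activity relative to DMSO control. Enzyme (3.4 nM) was incubated 120 min at room temperature with 20 μM PIP2 and 2 μM ATP at pH 6.7, 2% DMSO.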
# Sequence of PI3Kγ (p110γ) Recombinant Human Protein (P48736 whole entry): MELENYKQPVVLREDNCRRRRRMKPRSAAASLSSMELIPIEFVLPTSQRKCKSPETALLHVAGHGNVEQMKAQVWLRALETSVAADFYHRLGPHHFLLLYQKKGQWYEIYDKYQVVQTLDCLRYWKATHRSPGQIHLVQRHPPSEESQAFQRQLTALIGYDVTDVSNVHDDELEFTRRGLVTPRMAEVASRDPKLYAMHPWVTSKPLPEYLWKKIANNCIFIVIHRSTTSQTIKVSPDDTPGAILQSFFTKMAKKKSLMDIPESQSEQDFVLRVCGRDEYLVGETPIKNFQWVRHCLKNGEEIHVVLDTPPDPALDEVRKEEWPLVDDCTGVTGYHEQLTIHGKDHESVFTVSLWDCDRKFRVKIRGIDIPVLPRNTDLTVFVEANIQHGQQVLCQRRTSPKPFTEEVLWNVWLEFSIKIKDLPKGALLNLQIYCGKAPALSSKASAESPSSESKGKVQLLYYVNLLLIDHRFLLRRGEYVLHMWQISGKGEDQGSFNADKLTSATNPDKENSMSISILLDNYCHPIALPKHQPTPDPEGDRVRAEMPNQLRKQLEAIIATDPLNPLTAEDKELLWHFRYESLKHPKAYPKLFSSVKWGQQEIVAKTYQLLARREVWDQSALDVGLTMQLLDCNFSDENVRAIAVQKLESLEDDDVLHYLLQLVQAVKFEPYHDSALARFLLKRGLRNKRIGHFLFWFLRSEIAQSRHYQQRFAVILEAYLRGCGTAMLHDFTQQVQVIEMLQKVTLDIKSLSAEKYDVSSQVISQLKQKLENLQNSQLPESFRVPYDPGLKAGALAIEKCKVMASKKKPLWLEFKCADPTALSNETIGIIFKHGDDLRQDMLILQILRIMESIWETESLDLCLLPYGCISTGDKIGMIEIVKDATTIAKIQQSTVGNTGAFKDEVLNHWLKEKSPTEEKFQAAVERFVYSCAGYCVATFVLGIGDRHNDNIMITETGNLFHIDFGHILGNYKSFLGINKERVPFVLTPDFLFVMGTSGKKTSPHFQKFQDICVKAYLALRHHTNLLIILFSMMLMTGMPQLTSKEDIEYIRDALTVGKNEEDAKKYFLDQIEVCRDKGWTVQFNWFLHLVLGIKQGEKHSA
# Sequence of PI3Kδ (p110δ/p85α) Recombinant Human Protein (O00329 whole entry): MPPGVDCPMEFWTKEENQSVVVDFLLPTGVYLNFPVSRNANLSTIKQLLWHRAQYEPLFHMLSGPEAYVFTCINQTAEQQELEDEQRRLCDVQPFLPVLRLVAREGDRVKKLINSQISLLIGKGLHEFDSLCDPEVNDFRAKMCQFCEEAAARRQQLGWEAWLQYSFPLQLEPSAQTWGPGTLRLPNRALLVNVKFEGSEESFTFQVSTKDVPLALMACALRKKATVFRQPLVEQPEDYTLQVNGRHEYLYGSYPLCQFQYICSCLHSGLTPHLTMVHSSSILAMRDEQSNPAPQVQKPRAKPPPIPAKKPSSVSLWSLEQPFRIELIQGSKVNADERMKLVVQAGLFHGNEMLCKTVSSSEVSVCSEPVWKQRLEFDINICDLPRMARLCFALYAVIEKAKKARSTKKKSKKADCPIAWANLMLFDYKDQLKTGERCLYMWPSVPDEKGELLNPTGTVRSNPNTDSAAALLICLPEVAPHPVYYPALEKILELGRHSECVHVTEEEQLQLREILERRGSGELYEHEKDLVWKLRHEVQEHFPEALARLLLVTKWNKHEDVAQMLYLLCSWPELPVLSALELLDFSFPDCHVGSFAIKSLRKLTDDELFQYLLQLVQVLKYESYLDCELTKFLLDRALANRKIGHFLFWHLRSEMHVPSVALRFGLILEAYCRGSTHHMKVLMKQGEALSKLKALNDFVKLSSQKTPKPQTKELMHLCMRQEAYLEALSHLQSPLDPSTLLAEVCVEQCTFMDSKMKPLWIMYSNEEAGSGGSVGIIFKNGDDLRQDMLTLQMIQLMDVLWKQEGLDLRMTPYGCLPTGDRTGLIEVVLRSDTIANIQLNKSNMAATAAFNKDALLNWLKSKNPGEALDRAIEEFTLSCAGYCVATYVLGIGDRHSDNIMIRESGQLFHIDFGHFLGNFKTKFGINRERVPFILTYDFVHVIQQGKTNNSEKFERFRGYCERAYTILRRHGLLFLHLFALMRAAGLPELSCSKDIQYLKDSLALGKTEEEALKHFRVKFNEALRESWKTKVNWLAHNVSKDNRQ
# Sequence of PI3Kδ (p110δ/p85α) Recombinant Human Protein (P27986 whole entry partner): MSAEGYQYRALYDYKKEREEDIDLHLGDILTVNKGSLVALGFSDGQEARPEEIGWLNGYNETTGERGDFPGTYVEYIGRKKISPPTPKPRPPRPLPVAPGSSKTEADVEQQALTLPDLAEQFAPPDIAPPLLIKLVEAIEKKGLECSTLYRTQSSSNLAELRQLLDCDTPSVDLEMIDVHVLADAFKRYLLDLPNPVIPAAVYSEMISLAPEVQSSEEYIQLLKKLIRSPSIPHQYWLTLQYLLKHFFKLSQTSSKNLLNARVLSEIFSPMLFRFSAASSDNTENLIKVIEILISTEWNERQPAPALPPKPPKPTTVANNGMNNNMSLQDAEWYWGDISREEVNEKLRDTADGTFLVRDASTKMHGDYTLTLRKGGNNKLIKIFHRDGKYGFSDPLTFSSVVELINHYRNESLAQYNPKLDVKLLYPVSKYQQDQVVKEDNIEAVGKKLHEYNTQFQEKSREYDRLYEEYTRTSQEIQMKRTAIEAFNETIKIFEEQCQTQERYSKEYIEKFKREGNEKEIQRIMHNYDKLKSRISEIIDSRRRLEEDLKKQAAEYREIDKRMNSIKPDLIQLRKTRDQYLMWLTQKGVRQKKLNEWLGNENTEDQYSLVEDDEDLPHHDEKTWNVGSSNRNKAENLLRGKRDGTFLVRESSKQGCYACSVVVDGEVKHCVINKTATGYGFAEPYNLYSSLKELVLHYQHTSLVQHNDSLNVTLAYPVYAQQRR
IC50 ([1]; read-out: PI3Kγ IC50) [nM],IC50 [2] [nM],Compound,IC50 [1] [nM]
< 100,500 to 2000,"Cc1ccc(S(=O)(=O)N2CCC(C)(C#N)C2)cc1-c1cnc2c(N)ncnn12 (stereo not shown) [Example 200, 1-((3-(4-Aminoimidazo[2,1-f][1,2,4]triazin-7-yl)-4-methylphenyl)sulfonyl)-3-methylpyrrolidine-3-carbonitrile]",–
< 100,500 to 2000,"Cc1ccc(S(C)(=O)=O)cc1-c1cnc2c(N)nc(C(=O)NC3CCCN(S(C)(=O)=O)C3)cn12 (stereo not shown) [Example 462, 8-Amino-3-(2-methyl-5-(methylsulfonyl)phenyl)-N-(1-(methylsulfonyl)piperidin-3-yl)imidazo[1,2-a]pyrazine-6-carboxamide trifluoroacetate salt]",–
< 100,500 to 2000,Cc1ccc(S(=O)(=O)N2CCC[C@@H]2CO)cc1-c1cnc2c(N)ncnn12 [Example 152],–
100 to 500,> 2000,"Cc1ccc(S(=O)(=O)N2C[C@H](O)[C@@H](N3CCN(C)CC3)C2)cc1-c1cnc2c(N)ncnn12 [Example 167, (3S,4S)-1-((3-(4-aminoimidazo[2,1-f][1,2,4]triazin-7-yl)-4-methylphenyl)sulfonyl)-4-(4-methylpiperazin-1-yl)pyrrolidin-3-ol]",–
< 100,500 to 2000,"Cc1c(F)cc(S(=O)(=O)NCC(C)(C)O)cc1-c1cnc2c(N)nc(CO)nn12 [Example 470, 3-(4-Amino-2-(hydroxymethyl)imidazo[2,1-f][1,2,4]triazin-7-yl)-5-fluoro-N-(2-hydroxy-2-methylpropyl)-4-methylbenzenesulfonamide]",–
< 100,500 to 2000,"Cc1ccc(S(=O)(=O)N2CC3(CC(O)C3)C2)cc1-c1cnc2c(N)nc(C(F)(F)F)cn12 [Example 297, 2-((3-(8-amino-6-(trifluoromethyl)imidazo[1,2-a]pyrazin-3-yl)-4-methylphenyl)sulfonyl)-2-azaspiro[3.3]heptan-6-ol]",–
100 to 500,500 to 2000,"Cc1ccc(S(=O)(=O)N2CCN(C3CC3)C(=O)C2)cc1-c1cnc2c(N)ncnn12 [Example 171, 4-((3-(4-aminoimidazo[2,1-f][1,2,4]triazin-7-yl)-4-methylphenyl)sulfonyl)-1-cyclopropylpiperazin-2-one]",–
< 100,100 to 500,"Cc1ccc(S(C)(=O)=O)cc1-c1cnc2c(N)nc(-c3ccc(CN4CCCC4)cc3F)cn12 [Example 487, 6-(2-Fluoro-4-(pyrrolidin-1-ylmethyl)phenyl)-3-(2-methyl-5-(methylsulfonyl)phenyl)imidazo[1,2-a]pyrazin-8-amine]",–
500 to 2000,> 2000,"Cc1ccc(S(C)(=O)=O)cc1-c1cnc2c(N)nc(C(=O)NC3CCCN(CCO)C3)cn12 (racemic) [Example 460, 8-Amino-N-(1-(2-hydroxyethyl)piperidin-3-yl)-3-(2-methyl-5-(methylsulfonyl)phenyl)imidazo[1,2-a]pyrazine-6-carboxamide trifluoroacetate salt (racemic)]",–
< 100,500 to 2000,"Cc1ccc(S(=O)(=O)N2CC[C@@H](C#N)C2)cc1-c1cnc2c(N)ncnn12 [Example 150, (R)-1-((3-(4-aminoimidazo[2,1-f][1,2,4]triazin-7-yl)-4-methylphenyl)sulfonyl)pyrrolidine-3-carbonitrile]",–
< 100,100 to 500,"Cc1ccc(S(=O)(=O)N2CCS(=O)(=O)CC2)cc1-c1cnc2c(N)ncnn12 [Example 161, 4-((3-(4-aminoimidazo[2,1-f][1,2,4]triazin-7-yl)-4-methylphenyl)sulfonyl)thiomorpholine 1,1-dioxide]",–
< 100,100 to 500,"Cc1ccc(S(C)(=O)=O)cc1-c1cnc2c(N)nc(-c3ccc(C(=O)N(C)C)cc3F)cn12 [Example 480, 4-(8-Amino-3-(2-methyl-5-(methylsulfonyl)phenyl)imidazo[1,2-a]pyrazin-6-yl)-3-fluoro-N,N-dimethylbenzamide]",–
< 100,500 to 2000,"Cc1cnccc1-c1cn2c(-c3cc(S(C)(=O)=O)ccc3C)cnc2c(N)n1 [Example 473, 3-(2-Methyl-5-(methylsulfonyl)phenyl)-6-(3-methylpyridin-4-yl)imidazo[1,2-a]pyrazin-8-amine trifluoroacetate]",–
100 to 500,500 to 2000,"Cc1ccc(S(=O)(=O)N2CCN3CCCC3C2)cc1-c1cnc2c(N)ncnn12 (stereo not shown) [Example 198, 7-(5-((Hexahydropyrrolo[1,2-a]pyrazin-2(1H)-yl)sulfonyl)-2-methylphenyl)imidazo[2,1-f][1,2,4]triazin-4-amine]",–
< 100,100 to 500,"Nc1nccn2c(-c3ccc(Cl)c(S(=O)(=O)N[C@H]4CC[C@H](O)CC4)c3)cnc12 [Example 46, 5-(8-Aminoimidazo[1,2-a]pyrazin-3-yl)-2-chloro-N-(trans-4-hydroxycyclohexyl)benzenesulfonamide]",–
100 to 500,500 to 2000,"COc1cccc(F)c1-c1cn2c(-c3cc(S(C)(=O)=O)ccc3C)cnc2c(N)n1 [Example 478, 6-(2-Fluoro-6-methoxyphenyl)-3-(2-methyl-5-(methylsulfonyl)phenyl)imidazo[1,2-a]pyrazin-8-amine trifluoroacetate]",–
100 to 500,500 to 2000,"Cc1ccc(S(=O)(=O)N2CCC3(CCCO3)C2)cc1-c1cnc2c(N)ncnn12 (stereo not shown) [Example 202, 7-(5-((1-Oxa-7-azaspiro[4.4]nonan-7-yl)sulfonyl)-2-methylphenyl)imidazo[2,1-f][1,2,4]triazin-4-amine]",–
< 100,500 to 2000,"Cc1ccc(S(=O)(=O)C[C@H]2CC[C@@H](O)CC2)cc1-c1cnc2c(N)ncnn12 [Example 498, cis-4-(((3-(4-Aminoimidazo[2,1-f][1,2,4]triazin-7-yl)-4-methylphenyl)sulfonyl)methyl)cyclohexan-1-ol]",–
> 2000,100 to 500,"CCN(CC)CCCCNC(=O)c1cn2c(-c3cc(S(C)(=O)=O)ccc3C)cnc2c(N)n1 [Example 452, 8-Amino-N-(4-(diethylamino)butyl)-3-(2-methyl-5-(methylsulfonyl)phenyl)imidazo[1,2-a]pyrazine-6-carboxamide trifluoroacetate salt]",–
100 to 500,> 2000,"Cc1ccc(S(=O)(=O)N(C)C2CC(O)C2)cc1-c1cnc2c(N)ncnn12 [Example 159, 3-(4-aminoimidazo[2,1-f][1,2,4]triazin-7-yl)-N-((1R,3R)-3-hydroxycyclobutyl)-N,4-dimethylbenzenesulfonamide]",–
< 100,100 to 500,"Cc1ccc(S(C)(=O)=O)cc1-c1cnc2c(N)nc(-c3ccccc3F)cn12 [Example 40, 6-(2-Fluorophenyl)-3-[2-methyl-5-(methylsulfonyl)phenyl]imidazo[1,2-a]pyrazin-8-amine trifluoroacetate]",–
< 100,500 to 2000,"Cc1ccc(S(=O)(=O)N2CCN(C)C(=O)C2)cc1-c1cnc2c(N)nc(C(F)(F)F)cn12 [Example 298, 4-((3-(8-amino-6-(trifluoromethyl)imidazo[1,2-a]pyrazin-3-yl)-4-methylphenyl)sulfonyl)-1-methylpiperazin-2-one]",–
< 100,500 to 2000,"Cc1ccc(S(=O)(=O)[C@@H]2CCC[C@H](O)C2)cc1-c1cnc2c(N)ncnn12 (relative stereo) [Example 501, cis-3-((3-(4-Aminoimidazo[2,1-f][1,2,4]triazin-7-yl)-4-methylphenyl)sulfonyl)cyclohexan-1-ol]",–
100 to 500,500 to 2000,"COC(=O)N1CCCC(NC(=O)c2cn3c(-c4cc(S(C)(=O)=O)ccc4C)cnc3c(N)n2)C1 (stereo not shown) [Example 461, Methyl 3-(8-amino-3-(2-methyl-5-(methylsulfonyl)phenyl)imidazo[1,2-a]pyrazine-6-carboxamido)piperidine-1-carboxylate trifluoroacetate salt]",–
100 to 500,< 100,"COc1ccc(-c2cnc3c(N)nccn23)cc1S(=O)(=O)N[C@H]1CC[C@H](O)CC1 [Example 43, 5-(8-Aminoimidazo[1,2-a]pyrazin-3-yl)-N-(trans-4-hydroxycyclohexyl)-2-methoxybenzenesulfonamide]",–
100 to 500,> 2000,"Cc1ccc(S(=O)(=O)NCC2CCOC2)cc1-c1cnc2c(N)ncnn12 (stereo not shown) [Example 67, 3-(4-Aminoimidazo[2,1-f][1,2,4]triazin-7-yl)-4-methyl-N-(tetrahydrofuran-3-ylmethyl)benzenesulfonamide]",–
< 100,500 to 2000,"Cc1ccc(S(=O)(=O)N2CCCC23CCOCC3)cc1-c1cnc2c(N)ncnn12 [Example 209, 7-(5-((8-Oxa-1-azaspiro[4.5]decan-1-yl)sulfonyl)-2-methylphenyl)imidazo[2,1-f][1,2,4]triazin-4-amine]",–

Compound,IC50 ([1]; read-out: PI3Kγ IC50) [nM],IC50 [2] [nM],IC50 [1] [nM]
"Cc1ccc(S(=O)(=O)N(C)CC2(C)COC2)cc1-c1cnc2c(N)ncnn12 [Example 176, 3-(4-aminoimidazo[2,1-f][1,2,4]triazin-7-yl)-N,4-dimethyl-N-((3-methyloxetan-3-yl)methyl)benzenesulfonamide]",–,> 2000,100 to 500
"N#CC12CCC(NS(=O)(=O)c3ccc(OC(F)(F)F)c(-c4cnc5c(N)ncnn45)c3)(C1)C2 [Example 373, 3-(4-Aminoimidazo[1,2-f][1,2,4]triazin-7-yl)-N-(4-cyanobicyclo[2.1.1]hexan-1-yl)-4-(trifluoromethoxy)benzenesulfonamide trifluoroacetate salt]",500 to 2000,500 to 2000,–
